Tested on: Puccinia recondita f. sp. tritici
Test: Test H: wheat leaf rust, preventive spray on wheat seedlings, visual disease rating
Conditions: wheat leaf rust, preventive spray; 100 = 100% disease control; rating without asterisk

Row | SMILES | Test H rating (% disease control) [%]
1 | CCOc1cc(F)c(-c2c(C)nn(C)c2Nc2c(Cl)cc(F)cc2Cl)c(F)c1 [compound 200] | 86

Same assay, conditions: wheat leaf rust, sprayed the day before inoculation; 100 = 100% disease control, 0 = no disease control

Row | SMILES | Test H rating (disease control) [%]
2 | Cc1nn(C)c(Nc2c(F)cc(Cl)cc2Cl)c1-c1ccc(F)cc1F [Compound 161, N-(2,4-dichloro-6-fluorophenyl)-4-(2,4-difluorophenyl)-1,3-dimethyl-1H-pyrazol-5-amine] | 100
3 | Cc1nn(C)c(Nc2ccc(C#N)cc2F)c1-c1c(F)cc(F)cc1F [compound 34] | 99
4 | Cc1nn(C)c(Oc2c(F)cc(C#N)cc2F)c1-c1ccc(F)cc1F [compound 45] | 100
5 | Cc1nn(C)c(Nc2ccc(C#N)cc2F)c1-c1c(F)cccc1F [compound 59] | 98
6 | Cc1nn(C)c(Nc2c(F)cc(Cl)cc2F)c1-c1ccc(Cl)cc1Cl [compound 157] | 100
7 | Cc1nn(C)c(Nc2ccc(Cl)cc2F)c1-c1c(F)cccc1F [compound 162] | 100
8 | Cc1nn(C)c(Nc2c(Cl)cc(Cl)cc2Cl)c1-c1ccc(F)cc1F [compound 165] | 99

Tested on: Septoria tritici
Test: Test F: wheat leaf blotch, preventive spray on wheat seedlings, visual disease rating
Format: in vivo
Conditions: 100 = 100% disease control, 0 = no disease control relative to the controls
Excerpt: (§1) A hyphen (-) indicates no test results.

Row | SMILES | Test F rating (disease control) [%]
9 | Cc1nn(C)c(Nc2c(F)cc(Cl)cc2Cl)c1-c1ccc(F)cc1F [Compound 161, N-(2,4-dichloro-6-fluorophenyl)-4-(2,4-difluorophenyl)-1,3-dimethyl-1H-pyrazol-5-amine] | 99
10 | Cc1nn(C)c(Nc2ccc(C#N)cc2F)c1-c1c(F)cc(F)cc1F [compound 34] | 100
11 | Cc1nn(C)c(Oc2c(F)cc(C#N)cc2F)c1-c1ccc(F)cc1F [compound 45] | 98
12 | Cc1nn(C)c(Nc2ccc(C#N)cc2F)c1-c1c(F)cccc1F [compound 59] | 100
13 | Cc1nn(C)c(Nc2c(F)cc(Cl)cc2F)c1-c1ccc(Cl)cc1Cl [compound 157] | 100
14 | Cc1nn(C)c(Nc2ccc(Cl)cc2F)c1-c1c(F)cccc1F [compound 162] | 100
15 | Cc1nn(C)c(Nc2c(Cl)cc(Cl)cc2Cl)c1-c1ccc(F)cc1F [compound 165] | 100

Same assay, conditions: preventive spray, 100 = 100% disease control, rating without asterisk

Row | SMILES | Test F rating (% disease control) [%]
16 | CCOc1cc(F)c(-c2c(C)nn(C)c2Nc2c(Cl)cc(F)cc2Cl)c(F)c1 [compound 200] | 100

Tested on: Septoria nodorum
Test: Test E: Septoria glume blotch, preventive spray on wheat seedlings, visual disease rating
Conditions: Septoria glume blotch on wheat, preventive spray; 100 = 100% disease control; rating without asterisk

Row | SMILES | Test E rating (% disease control) [%]
17 | CCOc1cc(F)c(-c2c(C)nn(C)c2Nc2c(Cl)cc(F)cc2Cl)c(F)c1 [compound 200] | 0

Same assay, conditions: Septoria glume blotch; 100 = 100% disease control, 0 = no disease control relative to the controls

Row | SMILES | Test E rating (disease control) [%]
18 | Cc1nn(C)c(Nc2c(F)cc(Cl)cc2Cl)c1-c1ccc(F)cc1F [Compound 161, N-(2,4-dichloro-6-fluorophenyl)-4-(2,4-difluorophenyl)-1,3-dimethyl-1H-pyrazol-5-amine] | 100
19 | Cc1nn(C)c(Nc2ccc(C#N)cc2F)c1-c1c(F)cc(F)cc1F [compound 34] | 94
20 | Cc1nn(C)c(Oc2c(F)cc(C#N)cc2F)c1-c1ccc(F)cc1F [compound 45] | 99
21 | Cc1nn(C)c(Nc2ccc(C#N)cc2F)c1-c1c(F)cccc1F [compound 59] | 73
22 | Cc1nn(C)c(Nc2c(F)cc(Cl)cc2F)c1-c1ccc(Cl)cc1Cl [compound 157] | 87
23 | Cc1nn(C)c(Nc2ccc(Cl)cc2F)c1-c1c(F)cccc1F [compound 162] | 0
24 | Cc1nn(C)c(Nc2c(Cl)cc(Cl)cc2Cl)c1-c1ccc(F)cc1F [compound 165] | 0

Tested on: Botrytis cinerea
Test: Test A: tomato Botrytis, preventive spray on tomato seedlings, visual disease rating
Conditions: tomato Botrytis, preventive spray; 100 = 100% disease control, 0 = no control relative to controls; rating without asterisk
Method: General protocol for preparing test suspensions for Tests A-I: the test compounds were first dissolved in acetone in an amount equal to 3% of the final volume and then suspended at the desired concentration (in ppm) in acetone and purified water (50/50 mix by volume) containing 250 ppm of the surfactant Trem® 014 (polyhydric alcohol esters). The resulting test suspensions were then used in Tests A-I. Each test was conducted in triplicate, and the results were averaged. Spraying a 200 ppm test suspension to the point of run-off on the test plants was the equivalent of a rate of about 800 g/ha. Unless otherwise indicated, the rating values indicate a 200 ppm test suspension was used. (An asterisk “*” next to the rating value indicates a 40 ppm test suspension was used.)
The test suspension was sprayed to the point of run-off on tomato seedlings. The following day the seedlings were inoculated with a spore suspension of Botrytis cinerea (the causal agent of tomato Botrytis) and incubated in saturated atmosphere at 20° C. for 48 h, and then moved to a growth chamber at 24° C. for 3 additional days, after which time visual disease ratings were made.

Row | SMILES | Test A rating (% disease control) [%]
25 | CCOc1cc(F)c(-c2c(C)nn(C)c2Nc2c(Cl)cc(F)cc2Cl)c(F)c1 [compound 200] | 98

Same assay, conditions: tomato Botrytis; 100 = 100% disease control, 0 = no disease control relative to the controls

Row | SMILES | Test A rating (disease control) [%]
26 | Cc1nn(C)c(Nc2c(F)cc(Cl)cc2Cl)c1-c1ccc(F)cc1F [Compound 161, N-(2,4-dichloro-6-fluorophenyl)-4-(2,4-difluorophenyl)-1,3-dimethyl-1H-pyrazol-5-amine] | 100
27 | Cc1nn(C)c(Nc2ccc(C#N)cc2F)c1-c1c(F)cc(F)cc1F [compound 34] | 100
28 | Cc1nn(C)c(Oc2c(F)cc(C#N)cc2F)c1-c1ccc(F)cc1F [compound 45] | 100
29 | Cc1nn(C)c(Nc2ccc(C#N)cc2F)c1-c1c(F)cccc1F [compound 59] | 99
30 | Cc1nn(C)c(Nc2c(F)cc(Cl)cc2F)c1-c1ccc(Cl)cc1Cl [compound 157] | 100
31 | Cc1nn(C)c(Nc2ccc(Cl)cc2F)c1-c1c(F)cccc1F [compound 162] | 100
32 | Cc1nn(C)c(Nc2c(Cl)cc(Cl)cc2Cl)c1-c1ccc(F)cc1F [compound 165] | 100

Tested on: Puccinia recondita f. sp. tritici
Test: Test G: wheat leaf rust, spray after inoculation (curative) on wheat seedlings, visual disease rating
Format: in vivo
Conditions: spray after inoculation, 100 = 100% disease control, rating without asterisk
Excerpt: as §1

Row | SMILES | Test G rating (% disease control) [%]
33 | CCOc1cc(F)c(-c2c(C)nn(C)c2Nc2c(Cl)cc(F)cc2Cl)c(F)c1 [compound 200] | 0

Same assay, conditions: sprayed after inoculation, 100 = 100% disease control, 0 = no disease control

Row | SMILES | Test G rating (disease control) [%]
34 | Cc1nn(C)c(Nc2c(F)cc(Cl)cc2Cl)c1-c1ccc(F)cc1F [Compound 161, N-(2,4-dichloro-6-fluorophenyl)-4-(2,4-difluorophenyl)-1,3-dimethyl-1H-pyrazol-5-amine] | 100
35 | Cc1nn(C)c(Nc2ccc(C#N)cc2F)c1-c1c(F)cc(F)cc1F [compound 34] | 0
36 | Cc1nn(C)c(Oc2c(F)cc(C#N)cc2F)c1-c1ccc(F)cc1F [compound 45] | 0
37 | Cc1nn(C)c(Nc2ccc(C#N)cc2F)c1-c1c(F)cccc1F [compound 59] | 9
38 | Cc1nn(C)c(Nc2c(F)cc(Cl)cc2F)c1-c1ccc(Cl)cc1Cl [compound 157] | 27
39 | Cc1nn(C)c(Nc2ccc(Cl)cc2F)c1-c1c(F)cccc1F [compound 162] | 9
40 | Cc1nn(C)c(Nc2c(Cl)cc(Cl)cc2Cl)c1-c1ccc(F)cc1F [compound 165] | 67

Tested on: Blumeria graminis f. sp. tritici
Test: Test I: wheat powdery mildew, preventive spray on wheat seedlings, visual disease rating
Conditions: wheat powdery mildew, preventive spray; 100 = 100% disease control; rating without asterisk

Row | SMILES | Test I rating (% disease control) [%]
41 | CCOc1cc(F)c(-c2c(C)nn(C)c2Nc2c(Cl)cc(F)cc2Cl)c(F)c1 [compound 200] | 79

Same assay, conditions: wheat powdery mildew; 100 = 100% disease control, 0 = no disease control relative to the controls

Row | SMILES | Test I rating (disease control) [%]
42 | Cc1nn(C)c(Nc2c(F)cc(Cl)cc2Cl)c1-c1ccc(F)cc1F [Compound 161, N-(2,4-dichloro-6-fluorophenyl)-4-(2,4-difluorophenyl)-1,3-dimethyl-1H-pyrazol-5-amine] | 100
43 | Cc1nn(C)c(Nc2ccc(C#N)cc2F)c1-c1c(F)cc(F)cc1F [compound 34] | 99
44 | Cc1nn(C)c(Oc2c(F)cc(C#N)cc2F)c1-c1ccc(F)cc1F [compound 45] | 99
45 | Cc1nn(C)c(Nc2ccc(C#N)cc2F)c1-c1c(F)cccc1F [compound 59] | 98
46 | Cc1nn(C)c(Nc2c(F)cc(Cl)cc2F)c1-c1ccc(Cl)cc1Cl [compound 157] | 99
47 | Cc1nn(C)c(Nc2ccc(Cl)cc2F)c1-c1c(F)cccc1F [compound 162] | 100
48 | Cc1nn(C)c(Nc2c(Cl)cc(Cl)cc2Cl)c1-c1ccc(F)cc1F [compound 165] | 99

Tested on: Alternaria solani
Test: Test B: tomato early blight, preventive spray on tomato seedlings, visual disease rating
Conditions: tomato early blight, preventive spray; 100 = 100% disease control; rating without asterisk

Row | SMILES | Test B rating (% disease control) [%]
49 | CCOc1cc(F)c(-c2c(C)nn(C)c2Nc2c(Cl)cc(F)cc2Cl)c(F)c1 [compound 200] | 97

Same assay, conditions: tomato early blight; 100 = 100% disease control, 0 = no disease control relative to the controls

Row | SMILES | Test B rating (disease control) [%]
50 | Cc1nn(C)c(Nc2c(F)cc(Cl)cc2Cl)c1-c1ccc(F)cc1F [Compound 161, N-(2,4-dichloro-6-fluorophenyl)-4-(2,4-difluorophenyl)-1,3-dimethyl-1H-pyrazol-5-amine] | 99
51 | Cc1nn(C)c(Nc2ccc(C#N)cc2F)c1-c1c(F)cc(F)cc1F [compound 34] | 99
52 | Cc1nn(C)c(Oc2c(F)cc(C#N)cc2F)c1-c1ccc(F)cc1F [compound 45] | 99
53 | Cc1nn(C)c(Nc2ccc(C#N)cc2F)c1-c1c(F)cccc1F [compound 59] | 94
54 | Cc1nn(C)c(Nc2c(F)cc(Cl)cc2F)c1-c1ccc(Cl)cc1Cl [compound 157] | 97
55 | Cc1nn(C)c(Nc2ccc(Cl)cc2F)c1-c1c(F)cccc1F [compound 162] | 88
56 | Cc1nn(C)c(Nc2c(Cl)cc(Cl)cc2Cl)c1-c1ccc(F)cc1F [compound 165] | 0

Tested on: Phytophthora infestans
Test: whole plant or invertebrate
Format: in vivo
Conditions: Phytophthora infestans, in Solanum lycopersicum, read-out: Test C rating (disease control)

Row | SMILES | pest or weed control at 200 µg/mL [%]
57 | Cc1nn(C)c(Nc2c(F)cc(Cl)cc2Cl)c1-c1ccc(F)cc1F [Compound 161, N-(2,4-dichloro-6-fluorophenyl)-4-(2,4-difluorophenyl)-1,3-dimethyl-1H-pyrazol-5-amine] | 0

Same assay, conditions: tomato late blight, preventive spray; 100 = 100% disease control; rating without asterisk

Row | SMILES | Test C rating (% disease control) [%]
58 | CCOc1cc(F)c(-c2c(C)nn(C)c2Nc2c(Cl)cc(F)cc2Cl)c(F)c1 [compound 200] | 31

Same assay, conditions: tomato late blight; 100 = 100% disease control, 0 = no disease control relative to the controls

Row | SMILES | Test C rating (disease control) [%]
59 | Cc1nn(C)c(Nc2ccc(C#N)cc2F)c1-c1c(F)cc(F)cc1F [compound 34] | 9
60 | Cc1nn(C)c(Oc2c(F)cc(C#N)cc2F)c1-c1ccc(F)cc1F [compound 45] | 0
61 | Cc1nn(C)c(Nc2ccc(C#N)cc2F)c1-c1c(F)cccc1F [compound 59] | 0
62 | Cc1nn(C)c(Nc2c(F)cc(Cl)cc2F)c1-c1ccc(Cl)cc1Cl [compound 157] | 0
63 | Cc1nn(C)c(Nc2ccc(Cl)cc2F)c1-c1c(F)cccc1F [compound 162] | 0
64 | Cc1nn(C)c(Nc2c(Cl)cc(Cl)cc2Cl)c1-c1ccc(F)cc1F [compound 165] | 0

Reference: US20170150719A1, “FUNGICIDAL PYRAZOLES AND THEIR MIXTURES” (E I DU PONT DE NEMOURS AND COMPANY, priority 2010, published 2017)
